According to the supplement of paper PMC10307832:

How the values were obtained:
Assay in all cases: relative viability (nuclei count vs DMSO), 5 days (fraction); higher = more cells survive
[1] = compound: NC(=O)[C@@H](CCC(F)(F)F)N(Cc1ccc(-c2ncon2)cc1F)S(=O)(=O)c1ccc(Cl)cc1 [Avagacestat] + CC(=O)Nc1cccc(-n2c(=O)n(C3CC3)c(=O)c3c(Nc4ccc(I)cc4F)n(C)c(=O)c(C)c32)c1 [Trametinib] (partner 0.02 µM)
Outline: (§1)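 Medians of duplicate plates are given as relative viability. That measure is the nuclei count in treated wells divided by the count in vehicle wells. Counts were taken on 4× images of lung cancer cell lines in 1536-well plates, 5 days after pin-tool dosing the day after seeding with one drug alone or a fixed anchor-drug dose plus five library-drug doses (not always all listed) in √10 steps.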

[2] = compound: NC(=O)[C@@H](CCC(F)(F)F)N(Cc1ccc(-c2ncon2)cc1F)S(=O)(=O)c1ccc(Cl)cc1 [Avagacestat] + CC1(C)CCC(c2ccc(Cl)cc2)=C(CN2CCN(c3ccc(C(=O)NS(=O)(=O)c4ccc(N[C@H](CCN5CCOCC5)CSc5ccccc5)c(S(=O)(=O)C(F)(F)F)c4)cc3)CC2)C1 [Navitoclax] (partner 0.5 µM)
Outline: as §1

[3] = compound: NC(=O)[C@@H](CCC(F)(F)F)N(Cc1ccc(-c2ncon2)cc1F)S(=O)(=O)c1ccc(Cl)cc1 [Avagacestat] + N=C(N)NC(=N)NCCc1ccccc1 [Phenformin] (partner 250 µM)
Outline: as §1

[4] = compound: NC(=O)[C@@H](CCC(F)(F)F)N(Cc1ccc(-c2ncon2)cc1F)S(=O)(=O)c1ccc(Cl)cc1 [Avagacestat] + Nc1nc2[nH]cc(CCc3ccc(C(=O)N[C@@H](CCC(=O)O)C(=O)O)cc3)c2c(=O)[nH]1 [Pemetrexed] (partner 0.2 µM)
Outline: as §1

Cell Line	relative viability ([1]; first compound 0.08 µM)	relative viability ([1]; first compound 0.253 µM)	relative viability ([1]; first compound 0.8 µM)	relative viability ([1]; first compound 2.53 µM)	relative viability ([1]; first compound 8 µM)	relative viability ([2]; first compound 0.08 µM)	relative viability ([2]; first compound 0.253 µM)	relative viability ([2]; first compound 0.8 µM)	relative viability ([2]; first compound 2.53 µM)	relative viability ([2]; first compound 8 µM)	relative viability ([3]; first compound 0.08 µM)	relative viability ([3]; first compound 0.253 µM)	relative viability ([3]; first compound 0.8 µM)	relative viability ([3]; first compound 2.53 µM)	relative viability ([3]; first compound 8 µM)	relative viability ([4]; first compound 0.08 µM)	relative viability ([4]; first compound 0.253 µM)	relative viability ([4]; first compound 0.8 µM)	relative viability ([4]; first compound 2.53 µM)	relative viability ([4]; first compound 8 µM)
HCC-366	0.446	0.547	0.346	0.297	0.27	1.23	1.48	1	1.09	1.01	0.654	0.709	0.599	0.562	0.594	0.199	0.195	0.191	0.161	0.142
NCI-H1355	0.449	0.393	0.447	0.386	0.366	1.14	0.999	0.923	0.768	0.833	0.499	0.441	0.465	0.422	0.41	1.15	1.15	1.21	0.996	0.943
RERF-LC-KJ	0.917	0.853	0.89	0.81	0.84	1.11	0.878	0.874	0.982	1.1	0.435	0.495	0.412	0.431	0.367	0.479	0.477	0.461	0.465	0.437
LK-2	1.02	0.917	0.651	–	0.747	1.16	0.969	0.704	0.365	0.797	0.6	0.36	0.32	0.384	0.375	0.272	0.294	0.314	0.251	0.264
COR-L23	0.765	0.741	0.818	0.632	0.414	1.57	1.31	1.04	1	0.814	0.463	0.444	0.423	0.435	0.359	0.178	0.197	0.207	0.214	0.201
NCI-H1944	0.426	0.436	0.373	0.394	0.382	1.14	1.09	1.03	0.989	0.993	0.231	0.236	0.226	0.18	0.204	0.784	0.654	0.613	0.599	0.585
HCC-827	0.602	0.509	0.543	0.531	0.507	1.12	1.02	1.11	1.07	1.02	0.478	0.397	0.509	0.405	0.35	0.304	0.271	0.296	0.221	0.257
NCI-H3122	0.298	0.233	0.197	0.23	0.219	0.95	1.09	1.08	1.01	1.03	0.405	0.391	0.428	–	0.405	0.216	0.238	0.208	0.195	0.205
UMC-11	0.752	0.686	0.799	0.789	0.675	0.324	0.316	0.321	0.286	0.299	0.36	0.352	0.364	0.341	0.321	0.884	0.887	1.01	0.796	0.718
EMC-BAC-2	0.986	1.2	1.05	0.955	1.02	1.46	1.54	1.38	1.1	1.17	0.518	0.607	0.574	0.522	0.489	0.52	0.595	0.634	0.557	0.544
NCI-H1651	0.884	0.93	0.838	0.842	0.813	1.28	1.33	1.3	1.07	0.764	0.321	0.343	0.358	0.293	0.354	0.71	0.591	0.731	0.574	0.559
LOU-NH91	0.877	0.801	0.839	0.765	0.765	0.69	0.723	0.684	0.531	0.646	0.708	0.652	0.862	0.717	0.754	0.389	0.344	0.431	0.427	0.336
H3255	0.673	0.644	0.777	0.569	0.589	0.504	0.59	0.71	0.431	0.498	0.357	0.352	0.326	0.353	0.431	0.57	0.622	0.591	0.552	0.557
NCI-H460	0.223	0.143	0.13	0.112	0.1	–	1.92	1.37	0.759	1.15	0.597	0.866	0.771	0.337	0.379	0.0657	0.0554	0.0635	0.0567	0.0624
SK-MES-1	0.564	0.567	0.522	0.515	0.494	1.32	1.29	1.27	1.2	1.27	0.739	0.827	0.721	0.635	0.606	1.08	1.07	1.05	0.878	0.892
A-427	0.84	0.898	0.71	0.694	0.742	0.994	0.99	1.03	0.967	0.968	0.312	0.27	0.312	0.268	0.296	1.07	1.09	1.22	1.04	1.07
